Measurements as given in patent EP1037627B1, “USE OF 11-(3-DIMETHYLAMINOPROPYLIDENE)-6,11-DIHYDRODIBENZ[B,E]OXEPIN-2-ACETIC ACID AND OF PHARMACEUTICALLY ACCEPTABLE SALTS THEREOF FOR THE MANUFACTURE OF A MEDICAMENT FOR THE TREATMENT OF NON-[…] OPHTHALMIC INFLAMMATORY DISORDERS AND FOR THE PREVENTION OF OCULAR NEOVASCULARIZATION” (Alcon Laboratories, Inc., priority 1998, dated 2000).
Values joined by “and” are separate entries in the source; they are usually repeats but may differ in a detail not shown here. Equal entries are not always repeated. Structures can show the parent of a compound that is named as a salt. Where two headings read alike, the source gives them in different places.

What was measured:
[1] = system: IL-6 Secretion in Human Conjunctival Epithelial Cells; assay: Inhibition of histamine-stimulated IL-6 secretion in cultured human conjunctival epithelial cells (ELISA); type: cell-based; conditions: for IC50: Homo sapiens, read-out: IL-6 IC50
Text: (§1) Methods detailing the preparation of primary epithelial cell cultures and cytokine release studies using these cells have been described. See […], et al., "Secretion of proinflammatory cytokines by human conjunctival epithelial cells," Ocul Immunol Inflamm., 5:117-128 (1997). Briefly, cultures of human conjunctival epithelial cells were initiated from donor tissues obtained within eight hours post mortem by various eye banks. The tissues were enzymatically digested overnight. Epithelial cells were gently scraped from the tissue surface, dissociated into a single cell suspension, and cultured in keratinocyte growth medium (Clonetics® , San Diego, CA). Cells were used only through passage 6. Cultures were maintained in a preconfluent state to prevent differentiation. Cells were identified as epithelial by positive keratin staining. […] Cells were plated at 2x10^4 cells/well and cultured overnight at 5% CO2/37°C. The following day, fresh medium containing test compound was added directly to wells and the cells were incubated for 30 minutes prior to 24-hour stimulation with histamine (30 μM). Three separate culture wells were used for each treatment group. At harvest, supernatants were collected, centrifuged at 200 x g, and stored at -20°C. Samples were analyzed for IL-6 and IL-8 by ELISA (R&D Systems, Minneapolis, MN) as directed by the manufacturer. The sensitivities of each ELISA are as follows: […] The antagonist potency (IC50) was defined as the concentration of the drug required to produce 50% inhibition of the agonist-stimulated functional response. Data derived from the cytokine assays were calculated as mean and standard error (SEM) values which represent the variability among identically treated culture wells. The dose-dependent effect of pharmacological agents and IC50's were determined by linear regression. Data are expressed as mean ± S.E.M. from 3 - 5 independent experiments.

histamine H1-receptor = conditions: published values (Sharif et al. 1994; Yanni et al. 1997), read-out: H1 Binding Ki, cited from earlier work
[2] = system: IL-8 Secretion in Human Conjunctival Epithelial Cells; assay: Inhibition of histamine-stimulated IL-8 secretion in cultured human conjunctival epithelial cells (ELISA); type: cell-based; conditions: for IC50: Homo sapiens, read-out: IL-8 IC50
Text: as §1

[3] = HCE cells, 30 minutes preincubation with test compound, then 24-hour stimulation with histamine (30 µM), ELISA
[4] = IL-6 and IL-8 secretion IC50 compared with H1 binding affinity
[5] = HCE exposed to 30 µM of histamine

Row | IC50 [1, 3] [µM] | IC50 [2, 3] [µM] | Structure (SMILES) | less potent inhibitors of IL-6 and IL-8 secretion than predicted from their histamine H1-receptor binding affinities [1, 4] | Ki (histamine H1-receptor) | further results
1 | 4.83 | 1.22 | CN(C)CCC(c1ccccc1)c1ccccn1 (stereo not shown) [Pheniramine, N,N-Dimethyl-γ-phenyl-2-pyridine-propanamine] | 20 - 140 fold | 0.0339 µM | Ki (histamine H1-receptor; listed as pheniramine): 0.032 to 0.039 µM
2 | – | – | CN(C)CC/C=C1/c2ccccc2COc2ccc(CC(=O)O)cc21 [Olopatadine, Z-11-(3-Dimethylaminopropylidene)-6,11-dihydrodibenz[b,e]oxepin-2-acetic acid] | – | 0.036 µM and 0.032 to 0.039 µM | IC50 ([1]; HCE): 0.0055 µM; more potent as an inhibitor of cytokine secretion than predicted from binding data [1, 4]: approximately 10 fold; IC50 ([2]; HCE): 0.0017 µM
3 | 1.01 | 0.652 | c1ccc(CN(CC2=NCCN2)c2ccccc2)cc1 [Antazoline, 4,5-Dihydro-N-phenyl-N-(phenylmethyl)-1 H-imidazole-2-methanamine] | 20 - 140 fold | 0.0384 µM | Ki (histamine H1-receptor; listed as antazoline): 0.032 to 0.039 µM
4 | 0.0025 | 0.004 | CCOCCn1c(N2CCCN(C)CC2)nc2ccccc21 [Emedastine, 1H-Benzimidazole,1-(2-ethoxyethyl)-2-(hexahydro-4-methyl-1H-1,4-diazepin-1-yl),(E)-2-butenedioate (1:2)] | – | 0.00122 µM | –
5 | 0.0251 | 0.0119 | C[C@@H]1CN([C@H]2CC[C@](C#N)(c3ccc(F)cc3)CC2)CC[C@]1(C(=O)O)c1ccccc1 [Levocabastine, (-)-traps-1-[cis-4-Cyano-4-(p-fluorophenyl)cyclohexyl]-3-methyl-4-phenylisonipecotic acid monohydrochloride] | – | 0.0526 µM | –
6 | – | – | NCCc1c[nH]cn1 [histamine] | – | – | increased IL-6 secretion [1, 5]: 1.59 ± 0.19 fold above basal levels; increased IL-8 secretion [2, 5]: 1.80 ± 0.28 fold above basal levels
